Source: patent US8165823B2, “Pamps, pathogen associated molecular patterns” (Novartis AG, priority 2005, dated 2012)

Columns and labels:
[1] = system: human monocytic cell line THP-1; assay: Cytokine production by THP-1 cells after peptide stimulation; type: cell-based; conditions: for Cytokine production IL-1β / Cytokine production IL-8 / Cytokine production TNF-α: culture supernatant after 18 hours with peptide
Protocol: (§1) For the assay, the human cells used were cultured at 1 million cells/ml in 96-well plates with the peptides in complete RPMI medium with 5% FBS. After culture for 18 hours at 37° C. and 5% CO2, the culture supernatants were measured for the cytokines generated by the cells with an Upstate multiplex cytokine kit.

[2] = system: primary human peripheral blood mononuclear cells (hPBMC); assay: Cytokine production by primary hPBMC after peptide stimulation; type: cell-based
Protocol: The possible combinations of sequences included PDCGLR, PDCGLK, PDCGMR, and PDCGMK. […] Therefore, the specific peptide sequence PDCGLR, which was identified as a bacterial signature found commonly in bacterial proteins but not in Drosophila, is recognised by the human immune system as a PAMP.
as §1

cells in vitro = conditions: cited from earlier work
[3] = hPBMC #1643, culture supernatant after 18 hours with peptide

| Substance | Adjuvant activity, as measured by the specific production of cytokines (IL1-β, IL-8 and TNFα) [1] | Cytokine production IL-1β [1] [pg/mL] | Cytokine production IL-8 [1] [pg/mL] | Cytokine production TNF-α [1] [pg/mL] | Cytokine production (IL-6 and TNFα) ([2]; hPBMC) | Cytokine production IL-6 [2, 3] [pg/mL] | Cytokine production TNF-α [2, 3] [pg/mL] | Induction of cytokine production from cells in vitro (cells in vitro) |
| --- | --- | --- | --- | --- | --- | --- | --- | --- |
| PDCGLR | adjuvant activity was observed | 11.32 | 171.11 | 4.42 | cytokine production (IL-6 and TNFα) was also demonstrated | 31.42 | 3.6 |  |
| PDCGMR |  | 1.61 | 25.71 | <1 |  |  |  |  |
| PDCGMK |  | 1.59 | 19.28 | <1 |  |  |  |  |
| PDCGLK |  | 1.33 | 24.29 | <1 |  |  |  |  |
| ALTTE [5-mer peptide from a bacterial fimbriae protein] |  |  |  |  |  |  |  | shown to induce cytokine production from cells in vitro |
